From publication PMC7503500, “A Structure-Activity Relationship Comparison of Imidazodiazepines Binding at Kappa, Mu, and Delta Opioid Receptors and the GABAA Receptor” (Molecules, 2020)
“And” between values parts separate entries of the source, which are not always exact repeats. Equal entries are not always repeated. Where two headings read alike, the source gives them in different places.

Legend:
[1] = set-up: method as in PMID 32511908; settings: both phases; cited from earlier work
[2] = set-up: method as in PMID 32511908; settings: cited from earlier work
activated microglia = tested on: activated microglia; set-up: method as in PMID 32511908; settings: reversed by KOR antagonist norbinaltorphimine; cited from earlier work
[3] = tested on: synaptic benzodiazepine-sensitive receptors (BZR), GABAAR; assay: 3H-flunitrazepam binding, rat brain homogenate; settings: for BZR % (percent inhibition): at 10,000 nM; for Ki: read-out: BZR (Ki)
µ opioid receptor (MOR) = µ opioid receptor (MOR) (Homo sapiens, UniProt P35372); assay: Radioligand competition binding, MOR ([3H]-DAMGO), HEK293 cell homogenates; settings: for MOR % (percent inhibition): at 10,000 nM; for MOR % (percent inhibition) / inhibition at 10 µM: [3H]-DAMGO; for inhibition at 10 µM: read-out: MOR % (percent inhibition), at 10,000 nM
δ opioid receptor (DOR) = δ opioid receptor (DOR) (Homo sapiens, UniProt P41143); assay: Radioligand competition binding, DOR ([3H]-DADLE), HEK293 cell homogenates; settings: for DOR % (percent inhibition): at 10,000 nM; for inhibition at 10 µM: read-out: DOR % (percent inhibition), at 10,000 nM
κ opioid receptor (KOR) = κ opioid receptor (KOR) (Homo sapiens, UniProt P41145); assay: Radioligand competition binding, KOR ([3H]-U69593), HEK293 cell homogenates; settings: for KOR % (percent inhibition): at 10,000 nM; for KOR % (percent inhibition) / inhibition at 10 µM: [3H]-U69593; for inhibition at 10 µM: read-out: KOR % (percent inhibition), at 10,000 nM
human KOR = biological target: T1, human KOR (Homo sapiens, UniProt P41145); assay: cell-based
T1 construct: expressed in transfected cells; host or cells: HEK293T

[4] = read-out: KOR (Ki), [3H]-U69593, HEK293 homogenates

## CCc1noc(-c2ncn3c2[C@@H](C)N=C(c2ccccc2F)c2cc(C4CC4)ccc2-3)n1 [GL-IV-03]
[1]
  Agitation response in the formalin nociception test: alleviated the agitation response in both phases
[2]
  Impairment of sensorimotor coordination: without inducing impairment of sensorimotor coordination
Activated microglia
  Production of nitric oxide (NO) by activated microglia: reduced the production of nitric oxide (NO)
[3]
  BZR % (percent inhibition): 65%
µ opioid receptor (MOR)
  MOR % (percent inhibition): 25%
δ opioid receptor (DOR)
  DOR % (percent inhibition): 67%
κ opioid receptor (KOR)
  KOR % (percent inhibition): 91%
κ opioid receptor (KOR); [4]
  Ki: 232 nM

## C#Cc1ccc2c(c1)C(c1ccccc1F)=N[C@@H](C)c1c(C(=O)OC(C)(C)C)ncn1-2 [GL-I-30]
Human KOR; BRET GαoA recruitment
  Efficacy in comparison to full agonist salvinorin A: 100%
Human KOR; BRET, n = 24, mean and SEM, read-out: EC50, recruitment of GαoA protein to KOR
  EC50: 32 nM and 32.3 nM
[3]
  BZR % (percent inhibition): 96%
  Ki: 177 nM
µ opioid receptor (MOR)
  Ki: 1850 nM
  inhibition at 10 µM: 54%
δ opioid receptor (DOR)
  inhibition at 10 µM: 7%
κ opioid receptor (KOR)
  Ki: 27 nM
  inhibition at 10 µM: 95%
κ opioid receptor (KOR); KOR vs BZR Ki
  Selectivity in respect to BZR binding: 6.5 fold
κ opioid receptor (KOR); KOR vs MOR Ki
  Opioid receptor selectivity in comparison to MOR: 68 fold

## C#Cc1ccc2c(c1)C(c1ccccc1F)=N[C@H](C)c1c(-c3cnco3)ncn1-2 [GL-III-73]
[3]
  BZR % (percent inhibition): 65%
  Ki: 602 nM
µ opioid receptor (MOR)
  MOR % (percent inhibition): 12%
δ opioid receptor (DOR)
  DOR % (percent inhibition): 4%
κ opioid receptor (KOR)
  KOR % (percent inhibition): 74%
κ opioid receptor (KOR); [4]
  Ki: 449 nM

## C#Cc1ccc2c(c1)C(c1ccccc1F)=N[C@H](C)c1c(C(=O)NC(C)C)ncn1-2 [GL-III-66]
[3]
  BZR % (percent inhibition): 88%
  Ki: 271 nM
µ opioid receptor (MOR)
  inhibition at 10 µM: 0%
δ opioid receptor (DOR)
  inhibition at 10 µM: 0%
κ opioid receptor (KOR)
  Ki: 233 nM
  inhibition at 10 µM: 63%

## C#Cc1ccc2c(c1)C(c1ccccc1F)=N[C@@H](C)c1c(-c3cnco3)ncn1-2 [GL-III-78]
[3]
  BZR % (percent inhibition): 101%
  Ki: 261 nM
µ opioid receptor (MOR)
  MOR % (percent inhibition): 10%
δ opioid receptor (DOR)
  DOR % (percent inhibition): 9%
κ opioid receptor (KOR)
  KOR % (percent inhibition): 74%
κ opioid receptor (KOR); [4]
  Ki: 451 nM

## C#Cc1ccc2c(c1)C(c1ccccc1F)=NCc1c(-c3cnco3)ncn1-2 [KRM-II-18B]
[3]
  BZR % (percent inhibition): 97%
  Ki: 38 nM
µ opioid receptor (MOR)
  inhibition at 10 µM: 11%
δ opioid receptor (DOR)
  inhibition at 10 µM: 20%
κ opioid receptor (KOR)
  Ki: 361 nM
  inhibition at 10 µM: 89%
